Where two headings read alike, the source gives them in different places.
What was measured:
[1] = tested on: EBF1-PDGFRB; assay: viability assay of transformed Ba/F3 cells; type: cell-based, Homo sapiens; conditions: Ba/F3 cells with wild-type fusion; cell viability read-out
[2] = tested on: EBF1-PDGFRB; conditions: Ba/F3 cells with mutant fusion; cell viability read-out; gatekeeper; stated gain

Compound	IC50 [1] [nM]	IC50 [2] [nM]
Cc1nc(Nc2ncc(C(=O)Nc3c(C)cccc3Cl)s2)cc(N2CCN(CCO)CC2)n1 [dasatinib]	5.26	–
Cc1ccc(C(=O)Nc2ccc(CN3CCN(C)CC3)c(C(F)(F)F)c2)cc1C#Cc1cnc2cccnn12 [ponatinib]	5.73	23.93
